Test [1] relates to K562. The test is described as follows: Ability to inhibit the growth of human myelogenous leukemia K562 cells at 100 uM; no growth. It is filed as functional, cell-based.
Test [2] concerns K562. As to the kind of experiment: Ability to inhibit the growth of human myelogenous leukemia K562 cells. It is filed as functional, cell-based.

In the case of `NC(=O)c1c[nH]c([C@@H]2O[C@H](CO)[C@@H](O)[C@H]2O)n1`, the Activity entry with K562 [1] is “no growth”.

The IC50 is the concentration needed to halve the response being measured. Compound `NC(=O)c1csc([C@@H]2O[C@H](CO)[C@@H](O)[C@H]2O)c1` displayed an IC50 in the test on K562 [2] of 4.6 µM.
